Measurements taken from US8097637B2, “Benzoyl-piperidine derivatives as dual modulators of the 5-HT2A and D3 receptors” (Hoffmann-La Roche Inc., priority 2007, dated 2012).
pKi: −log10 of the molar value.

Key:
[1] = molecular target: T1, human D3 dopamine receptor (Homo sapiens, UniProt P35462); experiment: Radioligand binding ([3H]-spiperone) to cloned human D3 receptor, HEK-293 EBNA cell membranes; conditions: 0.5 nM [3H]-spiperone, 1 h at RT, Cheng-Prusoff
T1 construct: expressed in transfected cells; host or cells: HEK-293 EBNA cells, transient transfection; membrane preparation
T1 sequence (P35462 whole entry): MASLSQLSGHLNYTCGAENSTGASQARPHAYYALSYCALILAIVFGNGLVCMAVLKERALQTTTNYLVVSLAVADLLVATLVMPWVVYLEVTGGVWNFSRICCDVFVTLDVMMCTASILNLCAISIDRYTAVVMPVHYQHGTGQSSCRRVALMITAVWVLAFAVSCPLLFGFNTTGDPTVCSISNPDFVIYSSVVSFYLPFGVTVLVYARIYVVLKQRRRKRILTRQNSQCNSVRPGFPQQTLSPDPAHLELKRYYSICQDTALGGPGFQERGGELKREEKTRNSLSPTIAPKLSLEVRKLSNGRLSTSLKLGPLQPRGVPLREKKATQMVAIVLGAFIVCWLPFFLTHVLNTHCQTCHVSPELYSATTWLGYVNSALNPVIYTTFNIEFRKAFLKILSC
Protocol: The ability of the compounds to bind to the 5-HT2A, D3 and D2 receptors was determined using radioligand binding to cloned receptors selectively expressed in HEK-293 EBNA cells.
(§1) Membrane Preparation for Human D2, Human D3 and Human 5-HT2A Receptors
(§2) HEK-293 EBNA cells were transiently transfected with expression plasmids encoding for the human D2 or D3 dopamine- or for the human 5-HT2A serotonin receptor, respectively. The cells were harvested 48 h post-transfection, washed three times with cold PBS and stored at −80° C. prior to use. The pellet was suspended in cold 50 mM Tris-HCl buffer containing 10 mM EDTA (pH 7.4) and homogenized with a Polytron (Kinematica AG, Basel, Switzerland) for 20-30 sec at 12.000 rpm. After centrifugation at 48.000×g for 30 min at 4° C., the pellet was resuspended in cold 10 mM Tris-HCl buffer containing 0.1 mM EDTA (pH 7.4), homogenized, and centrifuged as above. This pellet was further resuspended in a smaller volume of ice cold 10 mM Tris-HCl buffer containing 0.1 mM EDTA (pH 7.4) and homogenized with a Polytron for 20-30 sec at 12.000 rpm. The protein content of this homogenate was determined with the Bio-Rad (Bradford) Protein Assay (Biorad Laboratories GmbH, München, Germany) according to the instructions of the manufacturer using gamma globulin as the standard. This homogenate was stored at −80° C. in aliquots and thawed immediately prior to use.
(§3) Radioligand Binding Assay Conditions
(§4) Aliquots of membrane preparations were thawed at RT, resuspended in assay buffer (D2, D3: 50 mM Tris-HCl, 120 mM NaCl, 5 mM MgCl2, 1 mM EDTA, 5 mM KCl, 1.5 mM CaCl2, pH=7.4; 5-HT2A: 50 mM Tris-HCl, 10 mM MgCl2, 1 mM EGTA, pH=7.4), homogenized with a Polytron for 20-30 sec at 12.000 rpm and adjusted to a final concentration of approximately 7.5 μg protein/well (D2, D3) and 15 μg protein/well (5-HT2A), respectively.
(§5) The binding affinity (Ki) of the compounds was determined using radioligand binding. Membranes were incubated in a total volume of 200 μl with a fixed concentration of radioligand (final concentration approximately 0.7 nM [^3H]-spiperone for D2, 0.5 nM [^3H]-spiperone for D3, and 1.1 nM [^3H]-ketanserin for 5-HT2A) and ten concentrations of test compound in ranging between 10 μM-0.1 nM for 1 h at RT. At the end of the incubation, the reaction mixtures were filtered on to unifilter 96-well white microplates with bonded GF/C filters (Packard BioScience, Zürich, Switzerland; preincubated for 1 h in 0.1% polyethylenimine (PEI) in assay buffer) with a Filtermate 196 harvester (Packard BioScience) and washed 3 times with cold assay buffer. The nonspecific binding was determined with equally composed reaction mixtures in the presence of 10 μM unlabeled spiperone. Per well 45 μl of Microscint 40 (Perkin Elmer, Schwerzenbach, Switzerland) was added, plates for sealed, shaken for 20 min and counted for 3 min on a Topcount Microplate Scintillation Counter (Canberra Packard SA, Zürich, Switzerland) with quenching correction.
(§6) The CPM value for each duplicate of a concentration of competing compound was averaged (yl), then the % specific binding was calculated according to the equation (((yl-non-specific)/(total binding-non-specific))×100). Graphs were plotted with the % specific binding using XLfit, a curve fitting program that iteratively plots the data using Levenburg Marquardt algorithm. The single site competition analysis equation used was y=A+((B−A)/(1+((x/C)^D))), where y is the % specific binding, A is the minimum y, B is the maximum y, C is the IC50, x is the log10 of the concentration of the competing compound and D is the slope of the curve (the Hill Coefficient). […] The affinity constant (Ki) was calculated using the Cheng-Prusoff equation Ki=(IC50/1+([L]/Kd), where [L] is the concentration of radioligand and Kd is the dissociation constant of the radioligand at the receptor as determined by the saturation isotherm.

[2] = molecular target: T2, human 5-HT2A serotonin receptor (Homo sapiens, UniProt P28223); experiment: Radioligand binding ([3H]-ketanserin) to cloned human 5-HT2A receptor, HEK-293 EBNA cell membranes; conditions: 1.1 nM [3H]-ketanserin, 1 h at RT, Cheng-Prusoff
T2 construct: expressed in transfected cells; host or cells: HEK-293 EBNA cells, transient transfection; membrane preparation
T2 sequence (P28223 whole entry): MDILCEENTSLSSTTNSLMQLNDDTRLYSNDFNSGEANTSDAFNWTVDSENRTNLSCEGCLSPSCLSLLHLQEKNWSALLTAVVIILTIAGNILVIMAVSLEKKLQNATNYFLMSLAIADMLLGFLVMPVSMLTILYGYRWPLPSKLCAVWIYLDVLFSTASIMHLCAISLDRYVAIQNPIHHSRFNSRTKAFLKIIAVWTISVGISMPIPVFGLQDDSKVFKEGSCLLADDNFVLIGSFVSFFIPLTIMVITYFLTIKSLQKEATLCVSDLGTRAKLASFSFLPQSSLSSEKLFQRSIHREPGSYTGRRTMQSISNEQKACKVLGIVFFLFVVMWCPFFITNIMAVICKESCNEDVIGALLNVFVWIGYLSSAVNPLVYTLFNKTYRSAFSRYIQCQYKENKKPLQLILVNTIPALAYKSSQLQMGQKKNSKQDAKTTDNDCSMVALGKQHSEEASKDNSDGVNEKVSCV
Protocol: as §1
as §2, with “The” for “HEK-293 EBNA cells were transiently transfected with expression plasmids encoding for the human D2 or D3 dopamine- or for the human 5-HT2A serotonin receptor, respectively. The”
as §3, §4
The binding affinity (Ki) of the compounds was determined using radioligand binding. […] The nonspecific binding was determined with equally composed reaction mixtures in the presence of 10 μM unlabeled spiperone. Per well 45 μl of Microscint 40 (Perkin Elmer, Schwerzenbach, Switzerland) was added, plates for sealed, shaken for 20 min and counted for 3 min on a Topcount Microplate Scintillation Counter (Canberra Packard SA, Zürich, Switzerland) with quenching correction.
as §6

[3] = molecular target: T3, human D2 dopamine receptor (Homo sapiens, UniProt P14416); experiment: Radioligand binding ([3H]-spiperone) to cloned human D2 receptor, HEK-293 EBNA cell membranes; conditions: 0.7 nM [3H]-spiperone, 1 h at RT, Cheng-Prusoff
T3 construct: expressed in transfected cells; host or cells: HEK-293 EBNA cells, transient transfection; membrane preparation
T3 sequence (P14416 whole entry): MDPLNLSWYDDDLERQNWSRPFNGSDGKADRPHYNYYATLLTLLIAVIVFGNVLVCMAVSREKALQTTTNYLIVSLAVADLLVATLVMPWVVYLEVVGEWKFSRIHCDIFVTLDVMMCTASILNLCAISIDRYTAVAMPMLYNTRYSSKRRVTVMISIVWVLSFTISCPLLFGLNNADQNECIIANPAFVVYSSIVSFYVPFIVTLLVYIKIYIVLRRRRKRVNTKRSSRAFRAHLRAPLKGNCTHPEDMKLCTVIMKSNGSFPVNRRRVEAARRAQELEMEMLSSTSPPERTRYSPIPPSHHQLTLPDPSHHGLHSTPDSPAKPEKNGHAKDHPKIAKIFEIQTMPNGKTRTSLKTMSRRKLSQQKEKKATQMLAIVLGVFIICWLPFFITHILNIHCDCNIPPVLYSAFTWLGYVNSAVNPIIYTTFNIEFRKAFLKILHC
Protocol: as §1, §2, §3, §4, §5, §6

O=C(CC1CCC(OC2CCOC2)CC1)N[C@H]1CC[C@H](CCN2CCC(C(=O)c3ccc(F)cc3)CC2)CC1 (mixture of isomers) [Example 17, rac-N-Trans (4-{2-[4-(4-Fluoro-benzoyl)-piperidin-1-yl]-ethyl}-cyclohexyl)-2-[4-(tetrahydro-furan-3-yloxy)-cyclohexyl]-acetamide]
pKi [1]: 7.40 | pKi [2]: 7.96 | pKi [3]: 5.58

CCO[C@H]1CC[C@H](CC(=O)N[C@H]2CC[C@H](CCN3CCC(C(=O)c4ccc(F)cc4)CC3)CC2)C1 (racemic) [Example 18, rac-2-(trans-3-Ethoxy-cyclopentyl)-N-trans-(4-{2-[4-(4-fluoro-benzoyl)-piperidin-1-yl]-ethyl}-cyclohexyl)-acetamide]
pKi [1]: 7.38 | pKi [2]: 7.55 | pKi [3]: 5.71

COCC1CCC(CC(=O)N[C@H]2CC[C@H](CCN3CCC(C(=O)c4ccc(F)cc4)CC3)CC2)C1 (mixture of isomers) [Example 28, rac-N-trans (4-{2-[4-(4-Fluoro-benzoyl)-piperidin-1-yl]-ethyl}-cyclohexyl)-2-(3-methoxymethyl-cyclopentyl)-acetamide]
pKi [1]: 7.48 | pKi [2]: 8.15 | pKi [3]: 5.89

COC1CCC(CCC(=O)N[C@H]2CC[C@H](CCN3CCC(C(=O)c4ccc(F)cc4)CC3)CC2)CC1 (mixture of isomers) [Example 29, rac-N-trans (4-{2-[4-(4-Fluoro-benzoyl)-piperidin-1-yl]-ethyl}-cyclohexyl)-3-(4-methoxy-cyclohexyl)-propionamide]
pKi [1]: 7.39 | pKi [2]: 8.15 | pKi [3]: 5.85

CO[C@@H]1CCC[C@@H](CC(=O)N[C@H]2CC[C@H](CCN3CCC(C(=O)c4ccc(F)cc4)CC3)CC2)C1 (single isomer, unassigned) [Example 16, N-trans (4-{2-[4-(4-Fluoro-benzoyl)-piperidin-1-yl]-ethyl}-cyclohexyl)-2-((1R,3R)-3-methoxy-cyclohexyl)-acetamide or N-trans (4-{2-[4-(4-fluoro-benzoyl)-piperidin-1-yl]-ethyl}-cyclohexyl)-2-((1S,3S)-3-methoxy-cyclohexyl)-acetamide]
pKi [1]: 7.46 | pKi [2]: 8.15 | pKi [3]: 5.90

C[C@]1(O)CC[C@H](CC(=O)N[C@H]2CC[C@H](CCN3CCC(C(=O)c4ccc(F)cc4)CC3)CC2)CC1 (single isomer, unassigned) [Example 23, N-trans (4-{2-[4-(4-Fluoro-benzoyl)-piperidin-1-yl]-ethyl}-cyclohexyl)-2-(4-trans-hydroxy-4-methyl-cyclohexyl)-acetamide or N-trans (4-{2-[4-(4-fluoro-benzoyl)-piperidin-1-yl]-ethyl}-cyclohexyl)-2-(4-cis-hydroxy-4-methyl-cyclohexyl)-acetamide]
pKi [1]: 7.31 | pKi [2]: 8.15 | pKi [3]: 5.89

C[C@]1(O)CC[C@@H](CC(=O)N[C@H]2CC[C@H](CCN3CCC(C(=O)c4ccc(F)cc4)CC3)CC2)CC1 (single isomer, unassigned) [Example 24, N-trans (4-{2-[4-(4-Fluoro-benzoyl)-piperidin-1-yl]-ethyl}-cyclohexyl)-2-(4-cis-hydroxy-4-methyl-cyclohexyl)-acetamide or N-trans (4-{2-[4-(4-fluoro-benzoyl)-piperidin-1-yl]-ethyl}-cyclohexyl)-2-(4-trans-hydroxy-4-methyl-cyclohexyl)-acetamide]
pKi [1]: 7.37 | pKi [2]: 8.05 | pKi [3]: 5.92

CO[C@H]1CC[C@@H](CC(=O)N[C@H]2CC[C@H](CCN3CCC(C(=O)c4ccc(F)cc4)CC3)CC2)CC1 [Example 2, N-trans (4-{2-[4-(4-Fluoro-benzoyl)-piperidin-1-yl]-ethyl}-cyclohexyl)-2-cis (4-methoxy-cyclohexyl)-acetamide]
pKi [1]: 7.55 | pKi [2]: 8.22 | pKi [3]: 5.82

CO[C@H]1CC[C@H](CC(=O)N[C@H]2CC[C@H](CCN3CCC(C(=O)c4ccc(F)cc4)CC3)CC2)CC1 [Example 3, N-trans (4-{2-[4-(4-Fluoro-benzoyl)-piperidin-1-yl]-ethyl}-cyclohexyl)-2-trans (4-methoxy-cyclohexyl)-acetamide]
pKi [1]: 7.62 | pKi [2]: 8.22 | pKi [3]: 5.89

O=C(CC1CCC2(CC1)OCCO2)N[C@H]1CC[C@H](CCN2CCC(C(=O)c3ccc(F)cc3)CC2)CC1 [Example 12, 2-(1,4-Dioxa-spiro[4.5]dec-8-yl)-N-trans (4-{2-[4-(4-fluoro-benzoyl)-piperidin-1-yl]-ethyl}-cyclohexyl)-acetamide]
pKi [1]: 7.62 | pKi [2]: 8.22 | pKi [3]: 5.76

CCO[C@H]1CC[C@H](CC(=O)N[C@H]2CC[C@H](CCN3CCC(C(=O)c4ccc(F)cc4)CC3)CC2)CC1 [Example 13, Trans-2-(4-Ethoxy-cyclohexyl)-N-trans (4-{2-[4-(4-fluoro-benzoyl)-piperidin-1-yl]-ethyl}-cyclohexyl)-acetamide]
pKi [1]: 7.48 | pKi [2]: 7.89 | pKi [3]: 5.85

COC[C@H]1CC[C@H](CC(=O)N[C@H]2CC[C@H](CCN3CCC(C(=O)c4ccc(F)cc4)CC3)CC2)CC1 [Example 21, N-trans (4-{2-[4-(4-Fluoro-benzoyl)-piperidin-1-yl]-ethyl}-cyclohexyl)-2-trans (4-methoxymethyl-cyclohexyl)-acetamide]
pKi [1]: 7.60 | pKi [2]: 8.30 | pKi [3]: 6.00

COC[C@H]1C[C@H](CC(=O)N[C@H]2CC[C@H](CCN3CCC(C(=O)c4ccc(F)cc4)CC3)CC2)C1 [Example 25, N-trans (4-{2-[4-(4-Fluoro-benzoyl)-piperidin-1-yl]-ethyl}-cyclohexyl)-2-trans (3-methoxymethyl-cyclobutyl)-acetamide]
pKi [1]: 7.57 | pKi [2]: 8.05 | pKi [3]: 5.73

COC[C@H]1C[C@@H](CC(=O)N[C@H]2CC[C@H](CCN3CCC(C(=O)c4ccc(F)cc4)CC3)CC2)C1 [Example 26, N-trans (4-{2-[4-(4-Fluoro-benzoyl)-piperidin-1-yl]-ethyl}-cyclohexyl)-2-cis (3-methoxymethyl-cyclobutyl)-acetamide]
pKi [1]: 7.59 | pKi [2]: 8.22 | pKi [3]: 5.69
